Measured values: patent US20030207854A1, “Antiprogestins with partial agonist activity” (priority 2002, published 2003)
Like-named read-outs stand apart in the source and are kept apart here.

Legend:
human PR-B = biological target: T1, human PR-B (Homo sapiens, UniProt P06401); assay: PR-B transactivation of MMTVLuc reporter in transiently transfected 1470.2 cells; assay type: cell-based; conditions: for EC50: read-out: EC50 from dose-response curves
T1 construct: expressed in transfected cells; host or cells: 1470.2 mouse mammary adenocarcinoma cells
T1 sequence (P06401 1-933): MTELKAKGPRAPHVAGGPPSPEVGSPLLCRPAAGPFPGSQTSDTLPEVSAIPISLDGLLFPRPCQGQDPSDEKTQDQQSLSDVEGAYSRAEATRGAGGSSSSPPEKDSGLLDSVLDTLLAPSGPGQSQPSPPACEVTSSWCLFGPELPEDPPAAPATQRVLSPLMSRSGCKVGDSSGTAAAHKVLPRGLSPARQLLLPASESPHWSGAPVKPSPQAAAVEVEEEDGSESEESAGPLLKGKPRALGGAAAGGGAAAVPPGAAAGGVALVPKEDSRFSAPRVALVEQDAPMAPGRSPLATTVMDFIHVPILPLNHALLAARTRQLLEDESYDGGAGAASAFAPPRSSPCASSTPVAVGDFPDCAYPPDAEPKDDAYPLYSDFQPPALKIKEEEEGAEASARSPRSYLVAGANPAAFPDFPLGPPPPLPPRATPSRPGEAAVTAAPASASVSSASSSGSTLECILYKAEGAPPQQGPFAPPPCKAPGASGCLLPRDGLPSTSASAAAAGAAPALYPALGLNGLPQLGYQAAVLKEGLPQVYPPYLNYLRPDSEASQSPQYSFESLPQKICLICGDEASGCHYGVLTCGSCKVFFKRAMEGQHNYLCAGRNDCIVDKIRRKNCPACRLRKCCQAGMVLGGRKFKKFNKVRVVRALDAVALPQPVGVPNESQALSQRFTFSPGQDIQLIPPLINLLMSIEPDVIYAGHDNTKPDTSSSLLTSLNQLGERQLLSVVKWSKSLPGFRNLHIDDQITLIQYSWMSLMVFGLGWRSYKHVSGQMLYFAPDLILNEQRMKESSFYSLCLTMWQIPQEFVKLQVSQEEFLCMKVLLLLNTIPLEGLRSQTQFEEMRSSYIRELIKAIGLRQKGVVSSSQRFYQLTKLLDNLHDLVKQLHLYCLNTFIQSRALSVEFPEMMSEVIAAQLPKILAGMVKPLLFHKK
Source text: All data were normalized for Renilla expression. […] The error bars represent the SD of triplicate plates.
All data were normalized for protein levels in the cell lysates. […] The error bars represent the SD of triplicate plates.
All data were normalized for Renilla expression.

PR [1] = biological target: T2, PR (Homo sapiens, UniProt P06401)
T2 sequence (P06401 1-933): T1 sequence (P06401 1-933)
Source text: The absolute levels of luciferase activity (±S.D. of triplicate values) were plotted.

PR [2] = biological target: T2, PR; assay type: cell-based; parameters: expressed in transfected cells; host or cells: CV-1 cells
Method: Cell culture and transfection: Monolayer cultures of COS-7 cells were grown at 37° C. with 5% CO2 in Dulbecco's modified Eagle's medium (DMEM; GIBCO/BRL Life Technologies, Inc.) supplemented with 5% of fetal bovine serum, respectively. The 1470.2 mouse mammary adenocarcinoma cells (Pennie et al., Mol Cell Biol 15:2125-2134, 1995) were grown in DMEM with 4.5 g glucose/L (Quality Biologicals, Inc.) whereas T47D cells were grown in Dulbecco's modified Eagle's medium with high glucose (4.5 g/L, 2 mM glutamine, and 60 ng/ml insulin), both with 10% of fetal bovine serum. The 1470.2 cells were transiently transfected with the human PR-B construct, 1 μg of MMTVLuc, and 50 ng Renilla null luciferase, with the total transfected DNA brought up to 3 μg/60 mm dish with pBSK^+DNA, using the calcium phosphate method as previously described (Szapary et al., J Biol Chem 271:30576-30582, 1996). Following 24 h of steroid treatment, the cells were harvested in 1× Passive Lysis Buffer (0.5 ml/dish; Promega, Madison, Wis.). Twenty μl of the cell lysates were used to assay for luciferase activity using the Dual-Luciferase Assay System from Promega (Madison, Wis.) and the methods recommended by the supplier. […]

[3] = 1470.2 cells, transfected human PR-B, MMTVLuc reporter

Row | EC50 (human PR-B; [3]) | Structure (SMILES) | antiprogestin activity: inhibition of the action of 300 pM R5020 (PR [1]; 1 μM and 10 μM Dex-Mes, 1 μM Dex-Ox, FIG. 7) | partial progestin activity with added PR (human PR-B; 1470.2 cells, 3 or 30 ng PR-B plasmid, 1 μM steroid, FIG. 5B) | agonist activity in CV-1 cells (PR [2]; CV-1 cells) | antiprogestin activity: inhibition of the action of 300 pM R5020 (PR [1]) | partial progestin activity with added PR (human PR-B) | EC50 (human PR-B) | agonist activity in CV-1 cells (PR [2])
1 | 0.4 nM | CCC(=O)[C@@]1(C)CC[C@H]2[C@@H]3CCC4=CC(=O)CCC4=C3CC[C@@]21C [R5020, promegestone, reference compound] | – | – | – | – | – | – | –
2 | ~350 nM | C[C@@H]1C[C@H]2[C@@H]3CCC4=CC(=O)C=C[C@]4(C)[C@@]3(F)[C@@H](O)C[C@]2(C)[C@@]1(O)C(=O)COS(C)(=O)=O [Dex-Mes, dexamethasone 21-mesylate] | reduced the activity of 300 pM R5020 to that of the competing steroid alone | significant amounts of partial progestin activity | much more agonist activity than either RIT 3021-020 or RU 486 | – | – | – | –
3 | – | C[C@@H]1C[C@H]2[C@@H]3CCC4=CC(=O)C=C[C@]4(C)[C@@]3(F)[C@@H](O)C[C@]2(C)[C@]12OCC2=O [Dex-Ox, dexamethasone oxetanone] | – | – | – | reduced the activity of 300 pM R5020 to that of the competing steroid alone | significant amounts of partial progestin activity | ~30 nM | much more agonist activity than either RIT 3021-020 or RU 486
